Experimental data reported in PubChem BioAssay (NCI).
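The concentration for 50% growth inhibition is given as GI50. TGI: total growth inhibition.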

How the values were obtained:
Experiment in all cases: inhibition of tumour cell growth, NCI panel, 384-well format
U251 glioblastoma = system: U251 glioblastoma
A498 renal = system: A498 renal
NCI-H460 NSCLC = system: NCI-H460 NSCLC
MDA-MB-468 breast = system: MDA-MB-468 breast
HCT-116 colon = system: HCT-116 colon
T-47D breast = system: T-47D breast
SR leukemia = system: SR leukemia
MCF7 breast = system: MCF7 breast
RXF 393 renal = system: RXF 393 renal
CAKI-1 renal = system: CAKI-1 renal
MALME-3M melanoma = system: MALME-3M melanoma
ACHN renal = system: ACHN renal
KM12 colon = system: KM12 colon
OVCAR-4 ovarian = system: OVCAR-4 ovarian
HT29 colon = system: HT29 colon
HOP-62 NSCLC = system: HOP-62 NSCLC
SNB-19 CNS = system: SNB-19 CNS
BT-549 breast = system: BT-549 breast
786-0 renal = system: 786-0 renal
MDA-MB-231 breast = system: MDA-MB-231 breast
OVCAR-5 ovarian = system: OVCAR-5 ovarian
NCI-H522 lung = system: NCI-H522 lung
NCI-H226 lung = system: NCI-H226 lung
NCI-H322M lung = system: NCI-H322M lung
SN12C renal = system: SN12C renal
OVCAR-3 ovarian = system: OVCAR-3 ovarian
M14 melanoma = system: M14 melanoma
HCT-15 colon = system: HCT-15 colon
DU-145 prostate = system: DU-145 prostate
UACC-62 melanoma = system: UACC-62 melanoma
HOP-92 NSCLC = system: HOP-92 NSCLC
UO-31 renal = system: UO-31 renal
MDA-MB-435 melanoma = system: MDA-MB-435 melanoma
SK-MEL-5 melanoma = system: SK-MEL-5 melanoma
RPMI-8226 leukemia = system: RPMI-8226 leukemia
PC-3 prostate = system: PC-3 prostate
HS 578T breast = system: HS 578T breast
HL-60(TB) leukemia = system: HL-60(TB) leukemia
SW-620 colon = system: SW-620 colon
SK-OV-3 ovarian = system: SK-OV-3 ovarian
SF-539 CNS = system: SF-539 CNS
SF-295 CNS = system: SF-295 CNS
A549 NSCLC = system: A549 NSCLC
UACC-257 melanoma = system: UACC-257 melanoma
OVCAR-8 ovarian = system: OVCAR-8 ovarian
LOX IMVI melanoma = system: LOX IMVI melanoma
SK-MEL-28 melanoma = system: SK-MEL-28 melanoma
IGROV1 ovarian = system: IGROV1 ovarian
SNB-75 CNS = system: SNB-75 CNS
MOLT-4 leukemia = system: MOLT-4 leukemia
COLO 205 colon = system: COLO 205 colon
SF-268 CNS = system: SF-268 CNS
EKVX NSCLC = system: EKVX NSCLC
NCI-H23 lung = system: NCI-H23 lung
TK-10 renal = system: TK-10 renal
CCRF-CEM leukemia = system: CCRF-CEM leukemia

Work on COc1cc2c(cc1O)CCN[C@]21CS[C@@H]2c3c(OC(C)=O)c(C)c4c(c3[C@H](COC1=O)N1[C@@H]2[C@H]2c3c(cc(C)c(OC)c3O)C[C@@H]([C@@H]1O)N2C)OCO4 yielded a GI50 (U251 glioblastoma) of 0.17 nM, a TGI (U251 glioblastoma) of 0.842 nM and a GI50 (A498 renal) of 1.18 nM. The TGI (A498 renal) was 2.61 nM, the GI50 (NCI-H460 NSCLC) was 0.112 nM and the TGI (NCI-H460 NSCLC) was 0.454 nM. The GI50 (MDA-MB-468 breast) was 0.0656 nM, the TGI (MDA-MB-468 breast) was 0.147 nM and the GI50 (HCT-116 colon) was 0.653 nM. The GI50 (T-47D breast) was 0.482 nM, the TGI (T-47D breast) was 2.33 nM and the GI50 (SR leukemia) was 0.0313 nM. For the same compound, the TGI (SR leukemia) was 0.0728 nM, the GI50 (MCF7 breast) was 0.447 nM and the TGI (MCF7 breast) was 5.54 nM. For the same compound, the GI50 (RXF 393 renal) was 0.0747 nM, the TGI (RXF 393 renal) was 0.209 nM and the GI50 (CAKI-1 renal) was 0.497 nM. The TGI (CAKI-1 renal) was 4.25 nM, the GI50 (MALME-3M melanoma) was 0.136 nM and the TGI (MALME-3M melanoma) was 0.37 nM. It also gave a GI50 (ACHN renal) of 0.685 nM, a TGI (ACHN renal) of 2.24 nM and a GI50 (KM12 colon) of 1.4 nM. It also gave a TGI (KM12 colon) of 3.58 nM, a GI50 (OVCAR-4 ovarian) of 2.77 nM and a TGI (OVCAR-4 ovarian) of 5.98 nM. It also gave a GI50 (HT29 colon) of 0.117 nM, a TGI (HT29 colon) of 0.245 nM and a GI50 (HOP-62 NSCLC) of 0.0657 nM. It also gave a TGI (HOP-62 NSCLC) of 0.177 nM, a GI50 (SNB-19 CNS) of 0.84 nM and a GI50 (BT-549 breast) of 0.0545 nM. For the same compound, the TGI (BT-549 breast) was 0.124 nM, the GI50 (786-0 renal) was 0.0975 nM and the TGI (786-0 renal) was 0.568 nM. The GI50 (MDA-MB-231 breast) was 1 nM, the TGI (MDA-MB-231 breast) was 2.56 nM and the GI50 (OVCAR-5 ovarian) was 0.983 nM. The TGI (OVCAR-5 ovarian) was 9.36 nM, the GI50 (NCI-H522 lung) was 0.11 nM and the TGI (NCI-H522 lung) was 0.447 nM. It also gave a GI50 (NCI-H226 lung) of 0.0901 nM, a TGI (NCI-H226 lung) of 0.359 nM and a GI50 (NCI-H322M lung) of 0.481 nM. For the same compound, the TGI (NCI-H322M lung) was 1.03 nM, the GI50 (SN12C renal) was 0.133 nM and the TGI (SN12C renal) was 0.715 nM. The GI50 (OVCAR-3 ovarian) was 0.227 nM, the TGI (OVCAR-3 ovarian) was 0.698 nM and the GI50 (M14 melanoma) was 0.0865 nM. The TGI (M14 melanoma) was 0.237 nM, the GI50 (HCT-15 colon) was 0.595 nM and the TGI (HCT-15 colon) was 5.24 nM. The GI50 (DU-145 prostate) was 0.31 nM, the TGI (DU-145 prostate) was 0.84 nM and the GI50 (UACC-62 melanoma) was 0.099 nM. The TGI (UACC-62 melanoma) was 0.371 nM, the GI50 (HOP-92 NSCLC) was 0.0211 nM and the TGI (HOP-92 NSCLC) was 0.0954 nM. It also gave a GI50 (UO-31 renal) of 0.514 nM, a TGI (UO-31 renal) of 0.962 nM and a GI50 (MDA-MB-435 melanoma) of 0.614 nM. The TGI (MDA-MB-435 melanoma) was 1.09 nM, the GI50 (SK-MEL-5 melanoma) was 0.0992 nM and the TGI (SK-MEL-5 melanoma) was 0.345 nM. The GI50 (RPMI-8226 leukemia) was 0.0686 nM, the TGI (RPMI-8226 leukemia) was 0.153 nM and the GI50 (PC-3 prostate) was 0.396 nM. The TGI (PC-3 prostate) was 1.54 nM, the GI50 (HS 578T breast) was 0.175 nM and the TGI (HS 578T breast) was 0.555 nM. It also gave a GI50 (HL-60(TB) leukemia) of 0.0567 nM, a TGI (HL-60(TB) leukemia) of 0.105 nM and a GI50 (SW-620 colon) of 1.61 nM. The TGI (SW-620 colon) was 3.49 nM, the GI50 (SK-OV-3 ovarian) was 2.22 nM and the TGI (SK-OV-3 ovarian) was 7.34 nM. The GI50 (SF-539 CNS) was 0.0765 nM, the TGI (SF-539 CNS) was 0.185 nM and the GI50 (SF-295 CNS) was 0.0877 nM. The TGI (SF-295 CNS) was 0.299 nM, the GI50 (A549 NSCLC) was 0.868 nM and the TGI (A549 NSCLC) was 2.37 nM. For the same compound, the GI50 (UACC-257 melanoma) was 0.546 nM, the TGI (UACC-257 melanoma) was 0.987 nM and the GI50 (OVCAR-8 ovarian) was 0.169 nM. For the same compound, the TGI (OVCAR-8 ovarian) was 0.555 nM, the GI50 (LOX IMVI melanoma) was 0.0744 nM and the TGI (LOX IMVI melanoma) was 0.234 nM. It also gave a GI50 (SK-MEL-28 melanoma) of 0.459 nM, a TGI (SK-MEL-28 melanoma) of 0.888 nM and a GI50 (IGROV1 ovarian) of 0.885 nM. The TGI (IGROV1 ovarian) was 8.12 nM, the GI50 (SNB-75 CNS) was 0.0952 nM and the TGI (SNB-75 CNS) was 0.329 nM. For the same compound, the GI50 (MOLT-4 leukemia) was 0.0228 nM, the TGI (MOLT-4 leukemia) was 0.0638 nM and the GI50 (COLO 205 colon) was 0.433 nM. It also gave a TGI (COLO 205 colon) of 0.882 nM, a GI50 (SF-268 CNS) of 0.121 nM and a TGI (SF-268 CNS) of 0.542 nM. For the same compound, the GI50 (EKVX NSCLC) was 0.583 nM, the TGI (EKVX NSCLC) was 1.28 nM and the GI50 (NCI-H23 lung) was 0.0949 nM. It also gave a TGI (NCI-H23 lung) of 0.309 nM, a GI50 (TK-10 renal) of 2.48 nM and a TGI (TK-10 renal) of 6 nM. The GI50 (CCRF-CEM leukemia) was 0.0203 nM and the TGI (CCRF-CEM leukemia) was 0.0389 nM.
